Where two headings read alike, the source gives them in different places.
Experiments:
[1] = test system: Fusarium nivale (var. majus); assay: Fusarium nivale (var. majus)-test (wheat) / preventive; format: in vivo; conditions: 500 ppm of active ingredient, evaluated 5 days after inoculation
Experimental: (§1) Fusarium nivale (var. majus)-Test (Wheat)/Preventive [table] To produce a suitable preparation of active compound, 1 part by weight of active compound or active compound combination is mixed with the stated amounts of solvent and emulsifier, and the concentrate is diluted with water to the desired concentration. To test for preventive activity, young plants are sprayed with the preparation of active compound or active compound combination at the stated rate of application. After the spray coating has been dried, the plants are slightly injured by using a sandblast and afterwards they are sprayed with a conidia suspension of Fusarium nivale (var. majus).

Septoria tritici = assay: Septoria tritici-test (wheat) / preventive; format: in vivo; conditions: 500 ppm of active ingredient, evaluated 21 days after inoculation
Experimental: as §1, with “Septoria tritici-Test” for “Fusarium nivale (var. majus)-Test”, “are” for “are slightly injured by using a sandblast and afterwards they are”, “spore” for “conidia”, “Septoria tritici.” for “Fusarium nivale (var. majus).”

[2] = log P by HPLC on reversed phase columns (EEC directive 79/831 Annex V.A8); format: physicochemical; conditions: for chromatographic logP: reversed phase HPLC columns
Experimental: Measurement of log P values was performed according EEC directive 79/831 Annex V.A8 by HPLC (High Performance Liquid Chromatography) on reversed phase columns with the following methods:
^[b] measurement of LC-MS was done at pH 2.7 with 0.1% formic acid in water and with acetonitrile (contains 0.1% formic acid) as eluent with a linear gradient from 10% acetonitrle to 95% acetonitrile.

Venturia inaequalis = assay: Venturia test (apples) / preventive; format: in vivo; conditions: 100 ppm of active ingredient, evaluated 10 days after inoculation
Experimental: Venturia Test (Apples)/Preventive [table] To produce a suitable preparation of active compound, 1 part by weight of active compound is mixed with the stated amounts of solvent and emulsifier, and the concentrate is diluted with water to the desired concentration. To test for preventive activity, young plants are sprayed with the preparation of active compound at the stated rate of application.

[3] = test system: Blumeria graminis f. sp. hordei; assay: Blumeria test (barley) / preventive; format: in vivo; conditions: 500 ppm of active ingredient, evaluated 7 days after inoculation
Experimental: (§2) Blumeria Test (Barley)/Preventive [table] To produce a suitable preparation of active compound, 1 part by weight of active compound or active compound combination is mixed with the stated amounts of solvent and emulsifier, and the concentrate is diluted with water to the desired concentration. To test for preventive activity, young plants are sprayed with the preparation of active compound or active compound combination at the stated rate of application. After the spray coating has been dried, the plants are dusted with spores of Blumeria graminis f. sp. hordei.

Puccinia triticina = assay: Puccinia triticina-test (wheat) / preventive; format: in vivo; conditions: 500 ppm of active ingredient, evaluated 8 days after inoculation
Experimental: as §2, with “Puccinia triticina-Test (Wheat)/Preventive” for “Blumeria Test (Barley)/Preventive”, “sprayed” for “dusted”, “a spore suspension” for “spores”, “Puccinia triticina.” for “Blumeria graminis f. sp. hordei.”

Podosphaera leucotricha = assay: Podosphaera test (apples) / preventive; format: in vivo; conditions: 100 ppm of active ingredient, evaluated 10 days after inoculation
Experimental: Podosphaera Test (Apples)/Preventive [table] To produce a suitable preparation of active compound, 1 part by weight of active compound is mixed with the stated amounts of solvent and emulsifier, and the concentrate is diluted with water to the desired concentration. To test for preventive activity, young plants are sprayed with the preparation of active compound at the stated rate of application. After the spray coating has dried on, the plants are inoculated with an aqueous spore suspension of the causal agent of apple mildew (Podosphaera leucotricha). The plants are then placed in a greenhouse at approximately 23° C. and a relative atmospheric humidity of approximately 70%.

Sphaerotheca fuliginea = assay: Sphaerotheca test (cucumber) / preventive; format: in vivo; conditions: 500 ppm of active ingredient, evaluated 7 days after inoculation
Experimental: (§3) Sphaerotheca Test (Cucumber)/Preventive [table] To produce a suitable preparation of active compound, 1 part by weight of active compound is mixed with the stated amounts of solvent and emulsifier, and the concentrate is diluted with water to the desired concentration. To test for preventive activity, young plants are sprayed with the preparation of active compound at the stated rate of application. One day after this treatment, the plants are inoculated with an aqueous spore suspension of Sphaerotheca fuliginea. Then the plants are placed in a greenhouse at approximately 23° C. and a relative atmospheric humidity of approximately 70%.

Alternaria solani = assay: Alternaria test (tomato) / preventive; format: in vivo; conditions: 500 ppm of active ingredient, evaluated 7 days after inoculation
Experimental: as §3, with “Alternaria” for “Sphaerotheca”, “(Tomato)/Preventive” for “(Cucumber)/Preventive”, “Alternaria solani.” for “Sphaerotheca fuliginea. Then the plants are placed in a greenhouse at approximately 23° C. and a relative atmospheric humidity of approximately 70%.”

Pyrenophora teres = assay: Pyrenophora test (barley) / preventive; format: in vivo; conditions: 500 ppm of active ingredient, evaluated 7-9 days after inoculation
Experimental: as §3, with “Pyrenophora” for “Sphaerotheca”, “(Barley)/Preventive” for “(Cucumber)/Preventive”, “Pyrenophora teres.” for “Sphaerotheca fuliginea. Then the plants are placed in a greenhouse at approximately 23° C. and a relative atmospheric humidity of approximately 70%.”

| Structure (SMILES) | Eff. % [1] | Eff. % (Septoria tritici) | chromatographic logP ([2]; pH 2.7, HPLC/LC-MS at pH 2.7, 0.1% formic acid in water / acetonitrile gradient, read-out: Log P[b]) | chromatographic logP ([2]; pH 2.7, acid, product isolated with a purity of 87% LC-MS, read-out: log P (acid)) | Eff. % (Venturia inaequalis) | Eff. % [3] | Eff. % (Puccinia triticina) | Eff. % (Podosphaera leucotricha) | Eff. % (Sphaerotheca fuliginea) | Eff. % (Alternaria solani) | Eff. % (Pyrenophora teres) | Log P[b] ([2]; HPLC/LC-MS at pH 2.7, 0.1% formic acid in water / acetonitrile gradient) |
| --- | --- | --- | --- | --- | --- | --- | --- | --- | --- | --- | --- | --- |
| Cn1nc(C(F)F)c(C(=O)NC2CCCCC2C2CC2C2CC2)c1F (single isomer, unassigned) [Example 1, N-{2-[1,1′-bi(cyclopropyl)-2-yl]cyclohexyl}-3-(difluoromethyl)-5-fluoro-1-methyl-1H-pyrazole-4-carboxamide] | 100% | 90% | 4.02 | 4.02 | 100% | 100% | 100% | 100% | 100% | 100% | 100% | – |
| Cn1nc(C(F)F)c(C(=O)NC2CCCCC2C2CC2C2CC2)c1F (single isomer, unassigned) [Example 2, N-{2-[1,1′-bi(cyclopropyl)-2-yl]cyclohexyl}-3-(difluoromethyl)-5-fluoro-1-methyl-1H-pyrazole-4-carboxamide] | 100% | 90% | – | – | 100% | 100% | 100% | 100% | 100% | 100% | 100% | 3.84 |

Reference: US8653114B2, “O-cyclopropylcyclohexyl-carboxanilides and their use as fungicides” (priority 2010, dated 2014)
